Where two headings read alike, the source gives them in different places.
Test: SAD study in healthy volunteers: PK in plasma, whole blood, red blood cells
Type: in vivo, human
Conditions: for Cmax / AUC(0-t) / half-life / Kp / blood plasma ratio: human; for Kp: red blood cells and plasma; for Kp / blood plasma ratio: HV, dose range of 50 to 2200 mg; for blood plasma ratio: whole blood and plasma
Procedure: To evaluate the safety and tolerability of single ascending doses of Compound I, 48 healthy volunteers (42 in the fasted state and 6 in the fed state) aged 18 to 55 years old were administered single ascending doses (50 mg to 2200 mg) of Compound I, while 16 healthy volunteers (14 in the fasted state and 2 in the fed state) aged 18 to 55 years old were administered placebo in a double blind, randomized, sequential manner.
Whole blood pharmacokinetic (PK) parameters, using actual sample collection times, and hemoglobin occupancy after single ascending dose are shown in Table 5 (containing data from both healthy volunteers and SCD subjects) and Table 6 (containing data from only healthy volunteer subjects).

B:P ratio (mean AUC0-t blood:mean AUC0-t plasma) (HV single 50 mg): 220
B:P ratio (mean AUC0-t blood:mean AUC0-t plasma) (HV single 100 mg): 214
B:P ratio (mean AUC0-t blood:mean AUC0-t plasma) (HV single 200 mg): 206
B:P ratio (mean AUC0-t blood:mean AUC0-t plasma) (HV single 400 mg): 185
B:P ratio AUC0-inf (healthy subjects n=6, single 100 mg): 216
Cmax (plasma, 100 mg, healthy volunteers n=6, single 100 mg, geometric mean): 714 ng/mL
AUC(0-t) (plasma, 100 mg, healthy volunteers n=6, single 100 mg, plasma, geometric mean, read-out: AUC0-t): 68.7 µg·h/mL
half-life (plasma, 100 mg, healthy volunteers n=6, single 100 mg, plasma, geometric mean, read-out: t½ (converted)): 25.6 days
Cmax (plasma, po, 50 mg, HV single oral 50 mg (Cohort 1), geometric mean): 400 ng/mL
AUC(0-t) (plasma, po, 50 mg, HV single oral 50 mg (Cohort 1), plasma, geometric mean, read-out: AUClast): 31.1 µg·h/mL
half-life (plasma, po, 50 mg, HV single oral 50 mg (Cohort 1), plasma, geometric mean, read-out: t1/2 (converted)): 28.7 days
Cmax (plasma, po, 100 mg, HV single oral 100 mg (Cohort 2), geometric mean): 714 ng/mL
AUC(0-t) (plasma, po, 100 mg, HV single oral 100 mg (Cohort 2), plasma, geometric mean, read-out: AUClast): 68.7 µg·h/mL
half-life (plasma, po, 100 mg, HV single oral 100 mg (Cohort 2), plasma, geometric mean, read-out: t1/2 (converted)): 25.6 days
Cmax (plasma, po, 200 mg, HV single oral 200 mg (Cohort 3), geometric mean): 1290 ng/mL
AUC(0-t) (plasma, po, 200 mg, HV single oral 200 mg (Cohort 3), plasma, geometric mean, read-out: AUClast): 135 µg·h/mL
half-life (plasma, po, 200 mg, HV single oral 200 mg (Cohort 3), plasma, geometric mean, read-out: t1/2 (converted)): 30.8 days
Cmax (plasma, po, 400 mg, HV single oral 400 mg (Cohort 5), geometric mean): 3190 ng/mL
AUC(0-t) (plasma, po, 400 mg, HV single oral 400 mg (Cohort 5), plasma, geometric mean, read-out: AUClast): 331 µg·h/mL
half-life (plasma, po, 400 mg, HV single oral 400 mg (Cohort 5), plasma, geometric mean, read-out: t1/2 (converted)): 26 days
Cmax (plasma, po, 800 mg, HV single oral 800 mg (Cohort 6), geometric mean): 4250 ng/mL
AUC(0-t) (plasma, po, 800 mg, HV single oral 800 mg (Cohort 6), plasma, geometric mean, read-out: AUClast): 609 µg·h/mL
half-life (plasma, po, 800 mg, HV single oral 800 mg (Cohort 6), plasma, geometric mean, read-out: t1/2 (converted)): 20.7 days
Cmax (plasma, po, 1400 mg, HV single oral 1400 mg (Cohort 7), geometric mean): 7780 ng/mL
AUC(0-t) (plasma, po, 1400 mg, HV single oral 1400 mg (Cohort 7), plasma, geometric mean, read-out: AUClast): 1030 µg·h/mL
half-life (plasma, po, 1400 mg, HV single oral 1400 mg (Cohort 7), plasma, geometric mean, read-out: t1/2 (converted)): 21.4 days
Cmax (plasma, po, 2200 mg, HV single oral 2200 mg (Cohort 8), geometric mean): 9300 ng/mL
AUC(0-t) (plasma, po, 2200 mg, HV single oral 2200 mg (Cohort 8), plasma, geometric mean, read-out: AUClast): 1360 µg·h/mL
half-life (plasma, po, 2200 mg, HV single oral 2200 mg (Cohort 8), plasma, geometric mean, read-out: t1/2 (converted)): 22.1 days
Kp (read-out: mean RBC to plasma ratio for AUCinf): 420 to 530
Kp (read-out: mean RBC to plasma ratio for Cmax): 49 to 99
AUC(0-t) (red blood cells, po, 50 mg, HV single oral 50 mg (Cohort 1), red blood cells (calculated conc.), geometric mean, read-out: AUClast): 16500 µg·h/mL
half-life (red blood cells, po, 50 mg, HV single oral 50 mg (Cohort 1), red blood cells (calculated conc.), geometric mean, read-out: t1/2 (converted)): 28.3 days
Cmax (red blood cells, po, 50 mg, HV single oral 50 mg (Cohort 1), red blood cells (conc. calculated from blood, plasma, hematocrit), geometric mean): 19300 ng/mL
Cmax (red blood cells, po, 100 mg, HV single oral 100 mg (Cohort 2), red blood cells (calculated conc.), geometric mean): 41700 ng/mL
AUC(0-t) (red blood cells, po, 100 mg, HV single oral 100 mg (Cohort 2), red blood cells (calculated conc.), geometric mean, read-out: AUClast): 34500 µg·h/mL
half-life (red blood cells, po, 100 mg, HV single oral 100 mg (Cohort 2), red blood cells (calculated conc.), geometric mean, read-out: t1/2 (converted)): 29 days
Cmax (red blood cells, po, 200 mg, HV single oral 200 mg (Cohort 3), red blood cells (calculated conc.), geometric mean): 76900 ng/mL
AUC(0-t) (red blood cells, po, 200 mg, HV single oral 200 mg (Cohort 3), red blood cells (calculated conc.), geometric mean, read-out: AUClast): 64400 µg·h/mL
half-life (red blood cells, po, 200 mg, HV single oral 200 mg (Cohort 3), red blood cells (calculated conc.), geometric mean, read-out: t1/2 (converted)): 28.1 days
Cmax (red blood cells, po, 400 mg, HV single oral 400 mg (Cohort 5), red blood cells (calculated conc.), geometric mean): 210000 ng/mL
AUC(0-t) (red blood cells, po, 400 mg, HV single oral 400 mg (Cohort 5), red blood cells (calculated conc.), geometric mean, read-out: AUClast): 151000 µg·h/mL
half-life (red blood cells, po, 400 mg, HV single oral 400 mg (Cohort 5), red blood cells (calculated conc.), geometric mean, read-out: t1/2 (converted)): 25.2 days
Cmax (red blood cells, po, 800 mg, HV single oral 800 mg (Cohort 6), red blood cells (calculated conc.), geometric mean): 351000 ng/mL
AUC(0-t) (red blood cells, po, 800 mg, HV single oral 800 mg (Cohort 6), red blood cells (calculated conc.), geometric mean, read-out: AUClast): 247000 µg·h/mL
half-life (red blood cells, po, 800 mg, HV single oral 800 mg (Cohort 6), red blood cells (calculated conc.), geometric mean, read-out: t1/2 (converted)): 26 days
Cmax (red blood cells, po, 1400 mg, HV single oral 1400 mg (Cohort 7), red blood cells (calculated conc.), geometric mean): 543000 ng/mL
AUC(0-t) (red blood cells, po, 1400 mg, HV single oral 1400 mg (Cohort 7), red blood cells (calculated conc.), geometric mean, read-out: AUClast): 455000 µg·h/mL
half-life (red blood cells, po, 1400 mg, HV single oral 1400 mg (Cohort 7), red blood cells (calculated conc.), geometric mean, read-out: t1/2 (converted)): 27.4 days
Cmax (red blood cells, po, 2200 mg, HV single oral 2200 mg (Cohort 8), red blood cells (calculated conc.), geometric mean): 910000 ng/mL
AUC(0-t) (red blood cells, po, 2200 mg, HV single oral 2200 mg (Cohort 8), red blood cells (calculated conc.), geometric mean, read-out: AUClast): 626000 µg·h/mL
half-life (red blood cells, po, 2200 mg, HV single oral 2200 mg (Cohort 8), red blood cells (calculated conc.), geometric mean, read-out: t1/2 (converted)): 24.6 days
blood plasma ratio (read-out: mean blood to plasma ratio for AUCinf): 177 to 219
blood plasma ratio (read-out: mean blood to plasma ratio for Cmax): 20 to 42
Cmax (whole blood, 50 mg, HV single 50 mg, mean): 8100 ng/mL
AUC(0-t) (whole blood, 50 mg, HV single 50 mg, whole blood, mean, read-out: AUC0-t): 6900 µg·h/mL
half-life (whole blood, 50 mg, HV single 50 mg, whole blood, mean, read-out: t1/2 (converted)): 28.9 days
Cmax (whole blood, 100 mg, HV single 100 mg, mean): 17400 ng/mL
AUC(0-t) (whole blood, 100 mg, HV single 100 mg, whole blood, mean, read-out: AUC0-t): 14400 µg·h/mL
half-life (whole blood, 100 mg, HV single 100 mg, whole blood, mean, read-out: t1/2 (converted)): 29.8 days
Cmax (whole blood, 100 mg, healthy subjects n=6, single 100 mg, blood, geometric mean): 17300 ng/mL
AUC(0-t) (whole blood, 100 mg, healthy subjects n=6, single 100 mg, blood, geometric mean, read-out: AUC0-t): 14300 µg·h/mL
half-life (whole blood, 100 mg, healthy subjects n=6, single 100 mg, blood, geometric mean, read-out: t½ (converted)): 29.1 days
Cmax (whole blood, 200 mg, HV single 200 mg, mean): 35800 ng/mL
AUC(0-t) (whole blood, 200 mg, HV single 200 mg, whole blood, mean, read-out: AUC0-t): 29300 µg·h/mL
half-life (whole blood, 200 mg, HV single 200 mg, whole blood, mean, read-out: t1/2 (converted)): 28.4 days
Cmax (whole blood, 400 mg, HV single 400 mg, mean): 88100 ng/mL
AUC(0-t) (whole blood, 400 mg, HV single 400 mg, whole blood, mean, read-out: AUC0-t): 61900 µg·h/mL
half-life (whole blood, 400 mg, HV single 400 mg, whole blood, mean, read-out: t1/2 (converted)): 25.8 days
Cmax (whole blood, 800 mg, HV single 800 mg, mean): 149000 ng/mL
AUC(0-t) (whole blood, 800 mg, HV single 800 mg, whole blood, mean, blood collected up to day 42, read-out: AUC0-t): 74300 µg·h/mL
Cmax (whole blood, 1400 mg, HV single 1400 mg, mean): 231000 ng/mL
AUC(0-t) (whole blood, 1400 mg, HV single 1400 mg, whole blood, mean, blood collected up to day 42, read-out: AUC0-t): 137000 µg·h/mL
SMILES: O=Cc1c(O)cccc1OC[C@@H]1COCCN1C(=O)c1cccnc1CCO [Compound I, (S)-2-hydroxy-6-((4-(2-(2-hydroxyethyl)nicotinoyl)morpholin-3-yl)methoxy)benzaldehyde]

— patent US20250041312A1, “METHODS OF ADMINISTERING A MODULATOR OF HEMOGLOBIN” (Global Blood Therapeutics, Inc., priority 2021, published 2025)
